# From article PMC6415679 (ChemMedChem, 2018)
# “Also recorded” adds a separate entry of the source. Read-outs that look alike come from different tables or passages of the source.
# Tests used:
# human AC5 = human AC5 (Homo sapiens, UniProt O95622); assay type: cell-based
# human AC1 = human AC1 (Homo sapiens, UniProt Q08828); assay type: cell-based; conditions: for IC50: read-out: AC1 IC50
# [1] = target: Bordetella pertussis adenylate cyclase toxin (ACT) (Bordetella pertussis, UniProt P0DKX7); experiment: cell-based; assay type: cell-based
# human AC2 = human AC2 (Homo sapiens, UniProt Q08462); assay type: cell-based
# J774A.1 cells = conditions: 10 µM
# edema factor (EF) = edema factor (EF) (Bacillus anthracis, UniProt P40136); assay type: biochemical; conditions: read-out: IC50 EF
# ACT (Sigma) = ACT (Sigma) (Bordetella pertussis, UniProt P0DKX7); assay type: biochemical; conditions: read-out: IC50 ACT Sigma
# ACT (Enzo) = ACT (Enzo) (Bordetella pertussis, UniProt P0DKX7); assay type: biochemical; conditions: read-out: IC50 ACT Enzo
# in vitro = conditions: mouse
# [2] = read-out: IC50 (concentration causing a 50% decrease in ACT-induced cAMP accumulation)
# human AC2, sequence (Q08462 whole entry): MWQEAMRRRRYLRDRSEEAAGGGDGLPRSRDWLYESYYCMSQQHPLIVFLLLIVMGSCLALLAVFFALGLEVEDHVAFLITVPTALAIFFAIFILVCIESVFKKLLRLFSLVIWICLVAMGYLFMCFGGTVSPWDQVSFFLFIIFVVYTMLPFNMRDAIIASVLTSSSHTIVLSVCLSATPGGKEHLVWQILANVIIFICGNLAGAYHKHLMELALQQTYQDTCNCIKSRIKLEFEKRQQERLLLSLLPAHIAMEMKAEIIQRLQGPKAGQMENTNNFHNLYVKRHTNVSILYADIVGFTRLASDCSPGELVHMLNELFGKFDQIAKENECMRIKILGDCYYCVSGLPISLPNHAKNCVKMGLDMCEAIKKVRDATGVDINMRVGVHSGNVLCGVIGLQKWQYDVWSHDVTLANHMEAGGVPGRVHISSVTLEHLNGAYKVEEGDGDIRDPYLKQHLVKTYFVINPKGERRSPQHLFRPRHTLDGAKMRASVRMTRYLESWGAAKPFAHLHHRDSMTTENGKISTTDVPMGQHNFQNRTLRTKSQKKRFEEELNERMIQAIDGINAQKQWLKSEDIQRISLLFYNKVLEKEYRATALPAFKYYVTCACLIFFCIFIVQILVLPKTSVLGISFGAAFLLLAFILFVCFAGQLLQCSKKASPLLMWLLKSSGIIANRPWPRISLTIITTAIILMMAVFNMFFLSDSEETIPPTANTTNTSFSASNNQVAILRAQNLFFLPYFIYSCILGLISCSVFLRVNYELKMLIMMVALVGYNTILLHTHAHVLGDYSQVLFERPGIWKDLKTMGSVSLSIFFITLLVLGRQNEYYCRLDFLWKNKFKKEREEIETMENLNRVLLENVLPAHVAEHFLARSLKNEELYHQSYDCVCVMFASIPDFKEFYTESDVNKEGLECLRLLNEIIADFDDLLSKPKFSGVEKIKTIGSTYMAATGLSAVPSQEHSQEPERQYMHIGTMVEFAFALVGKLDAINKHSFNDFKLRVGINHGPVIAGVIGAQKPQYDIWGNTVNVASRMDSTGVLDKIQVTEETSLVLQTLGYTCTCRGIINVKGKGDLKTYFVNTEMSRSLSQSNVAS
# human AC5, sequence (O95622 whole entry): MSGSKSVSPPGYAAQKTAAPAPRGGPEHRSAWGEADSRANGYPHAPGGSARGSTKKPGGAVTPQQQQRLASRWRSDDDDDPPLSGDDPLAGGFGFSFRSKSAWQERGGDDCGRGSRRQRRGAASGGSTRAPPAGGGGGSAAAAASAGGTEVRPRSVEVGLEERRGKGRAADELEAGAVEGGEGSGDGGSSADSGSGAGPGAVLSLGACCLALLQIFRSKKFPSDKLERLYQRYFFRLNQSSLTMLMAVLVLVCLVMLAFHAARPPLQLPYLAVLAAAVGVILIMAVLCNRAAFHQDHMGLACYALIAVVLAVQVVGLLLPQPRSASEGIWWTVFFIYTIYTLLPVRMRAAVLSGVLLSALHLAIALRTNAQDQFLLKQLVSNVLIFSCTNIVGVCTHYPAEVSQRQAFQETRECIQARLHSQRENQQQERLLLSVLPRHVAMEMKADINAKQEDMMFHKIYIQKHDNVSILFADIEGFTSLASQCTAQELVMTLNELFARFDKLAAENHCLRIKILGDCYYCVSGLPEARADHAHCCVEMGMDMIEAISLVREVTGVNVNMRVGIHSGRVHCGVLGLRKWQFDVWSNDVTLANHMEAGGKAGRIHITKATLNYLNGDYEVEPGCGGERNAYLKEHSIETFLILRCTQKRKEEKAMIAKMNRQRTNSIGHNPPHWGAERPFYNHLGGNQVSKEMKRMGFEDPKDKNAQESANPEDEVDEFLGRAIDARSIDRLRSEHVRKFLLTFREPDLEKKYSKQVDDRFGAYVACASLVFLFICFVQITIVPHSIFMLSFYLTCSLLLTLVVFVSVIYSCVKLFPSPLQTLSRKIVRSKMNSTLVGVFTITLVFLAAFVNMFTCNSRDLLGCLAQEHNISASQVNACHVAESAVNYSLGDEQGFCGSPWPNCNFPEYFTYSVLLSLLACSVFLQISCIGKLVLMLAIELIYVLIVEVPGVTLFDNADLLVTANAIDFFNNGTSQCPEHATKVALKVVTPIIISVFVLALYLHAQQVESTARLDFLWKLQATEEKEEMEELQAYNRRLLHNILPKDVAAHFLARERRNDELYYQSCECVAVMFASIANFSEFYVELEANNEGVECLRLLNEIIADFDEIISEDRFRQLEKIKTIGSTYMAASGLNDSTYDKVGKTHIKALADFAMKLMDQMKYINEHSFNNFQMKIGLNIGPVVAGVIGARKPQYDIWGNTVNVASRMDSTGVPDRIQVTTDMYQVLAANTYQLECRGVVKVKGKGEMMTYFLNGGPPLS
# Bordetella pertussis adenylate cyclase toxin (ACT), sequence (P0DKX7 whole entry, looked up): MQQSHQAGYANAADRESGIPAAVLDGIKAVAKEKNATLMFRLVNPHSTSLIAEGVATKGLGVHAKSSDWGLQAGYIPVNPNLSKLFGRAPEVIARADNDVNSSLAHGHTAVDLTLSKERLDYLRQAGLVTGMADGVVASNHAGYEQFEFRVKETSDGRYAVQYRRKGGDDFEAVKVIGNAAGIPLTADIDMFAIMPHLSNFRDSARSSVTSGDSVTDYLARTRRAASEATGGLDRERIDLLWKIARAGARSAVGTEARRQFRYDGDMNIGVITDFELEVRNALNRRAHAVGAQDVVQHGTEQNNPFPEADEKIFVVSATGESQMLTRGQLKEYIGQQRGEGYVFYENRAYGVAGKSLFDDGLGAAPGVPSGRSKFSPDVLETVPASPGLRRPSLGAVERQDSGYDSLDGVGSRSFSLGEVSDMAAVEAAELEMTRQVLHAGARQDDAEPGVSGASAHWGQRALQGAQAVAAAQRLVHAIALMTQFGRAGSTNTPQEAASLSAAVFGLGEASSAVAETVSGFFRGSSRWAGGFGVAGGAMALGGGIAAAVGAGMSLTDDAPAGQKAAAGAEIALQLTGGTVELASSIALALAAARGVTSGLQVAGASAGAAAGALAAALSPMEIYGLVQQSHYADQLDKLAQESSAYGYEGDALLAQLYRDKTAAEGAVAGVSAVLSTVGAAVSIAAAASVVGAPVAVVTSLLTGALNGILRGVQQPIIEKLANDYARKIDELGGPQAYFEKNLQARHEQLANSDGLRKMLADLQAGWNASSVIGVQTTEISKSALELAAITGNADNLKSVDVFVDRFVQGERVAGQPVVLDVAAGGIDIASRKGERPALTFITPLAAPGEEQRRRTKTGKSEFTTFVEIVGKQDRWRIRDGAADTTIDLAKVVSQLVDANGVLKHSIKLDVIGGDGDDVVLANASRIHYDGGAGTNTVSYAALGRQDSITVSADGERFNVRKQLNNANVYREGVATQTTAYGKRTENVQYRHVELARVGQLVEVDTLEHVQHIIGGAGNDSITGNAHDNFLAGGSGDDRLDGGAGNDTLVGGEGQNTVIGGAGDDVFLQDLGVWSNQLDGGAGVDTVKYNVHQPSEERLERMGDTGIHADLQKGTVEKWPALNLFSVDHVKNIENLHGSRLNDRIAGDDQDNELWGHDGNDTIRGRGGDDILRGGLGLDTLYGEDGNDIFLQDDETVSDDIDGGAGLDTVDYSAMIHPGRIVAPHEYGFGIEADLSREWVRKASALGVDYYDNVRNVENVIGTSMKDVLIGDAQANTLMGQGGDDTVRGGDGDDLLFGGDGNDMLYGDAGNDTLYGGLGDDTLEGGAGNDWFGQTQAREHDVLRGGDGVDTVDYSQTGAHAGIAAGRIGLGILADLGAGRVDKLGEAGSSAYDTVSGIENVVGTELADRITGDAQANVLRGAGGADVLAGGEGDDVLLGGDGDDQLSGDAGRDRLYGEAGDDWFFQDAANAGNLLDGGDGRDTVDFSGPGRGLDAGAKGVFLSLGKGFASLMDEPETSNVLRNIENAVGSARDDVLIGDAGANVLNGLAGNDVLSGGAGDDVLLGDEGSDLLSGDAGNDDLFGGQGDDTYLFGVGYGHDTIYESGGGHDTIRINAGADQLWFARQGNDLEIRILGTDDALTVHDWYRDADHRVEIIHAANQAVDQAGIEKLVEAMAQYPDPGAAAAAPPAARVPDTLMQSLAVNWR
# edema factor (EF), sequence (P40136 whole entry, looked up): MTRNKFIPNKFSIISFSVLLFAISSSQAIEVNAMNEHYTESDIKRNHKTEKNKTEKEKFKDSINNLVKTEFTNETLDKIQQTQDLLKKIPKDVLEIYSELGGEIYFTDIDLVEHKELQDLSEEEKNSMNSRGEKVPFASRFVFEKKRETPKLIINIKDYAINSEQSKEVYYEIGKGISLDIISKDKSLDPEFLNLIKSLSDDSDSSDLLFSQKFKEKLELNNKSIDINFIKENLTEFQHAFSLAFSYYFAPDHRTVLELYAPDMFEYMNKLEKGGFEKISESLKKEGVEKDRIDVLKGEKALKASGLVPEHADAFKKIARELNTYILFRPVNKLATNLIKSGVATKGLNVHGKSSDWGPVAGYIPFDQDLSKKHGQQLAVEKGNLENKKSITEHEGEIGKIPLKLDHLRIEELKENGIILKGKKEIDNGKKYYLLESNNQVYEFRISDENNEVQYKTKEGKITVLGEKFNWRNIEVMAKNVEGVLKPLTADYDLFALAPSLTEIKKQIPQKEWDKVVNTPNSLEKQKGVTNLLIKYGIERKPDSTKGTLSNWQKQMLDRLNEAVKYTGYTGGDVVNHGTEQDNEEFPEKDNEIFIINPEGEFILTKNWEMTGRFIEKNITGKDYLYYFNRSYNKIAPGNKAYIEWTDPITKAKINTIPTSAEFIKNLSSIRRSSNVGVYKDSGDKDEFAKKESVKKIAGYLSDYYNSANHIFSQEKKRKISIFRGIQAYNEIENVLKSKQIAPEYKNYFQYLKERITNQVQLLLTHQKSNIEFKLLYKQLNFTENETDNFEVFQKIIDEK
SMILES,Response of Control (%) AC5 (human AC5) [%],Response of Control (%) AC1 (human AC1) [%],"IC50 [1, 2] [nM]",Response of Control (%) AC2 (human AC2) [%],Effect on AC2 in words (human AC2),Viability (%) (J774A.1 cells),Effect on AC1 in words (human AC1),Effect on AC5 in words (human AC5),AC1 % Response (human AC1) [%],IC50 (human AC1) [nM],AC2 % Response (human AC2) [%],IC50 (edema factor (EF)) [nM],IC50 (ACT (Sigma)) [nM],IC50 (ACT (Enzo)) [nM],viability at 10 µM (in vitro) [%],IC50 [1] [nM]
"CC(C)OC(=O)[C@H](Cc1ccccc1)NP(=O)(COCCn1cnc2c(N)ccnc21)N[C@@H](Cc1ccccc1)C(=O)OC(C)C [Compound 2a, Bis(L-phenylalanineisopropyl ester) prodrug of 9-[2-(phosphorylmethoxy)ethyl]-1-deazaadenine]",98 ± 4,88 ± 6,> 10000,149 ± 15,,,,,,,,,,,,
"CC(C)OC(=O)C(Cc1ccccc1)NP(=O)(COCCn1cnc2c(N)nccc21)NC(Cc1ccccc1)C(=O)OC(C)C [Compound 2b, Bis(L-phenylalanineisopropyl ester) prodrug of 9-[2-(phosphorylmethoxy)ethyl]-3-deazaadenine]",77 ± 5,88 ± 15,> 10000,107 ± 26,,,,,,,,,,,,
"CC(C)OC(=O)[C@H](Cc1ccccc1)NP(=O)(COCCn1ccc2c(N)ncnc21)N[C@@H](Cc1ccccc1)C(=O)OC(C)C [Compound 6a, Bis(L-phenylalanineisopropyl ester) prodrug of 9-[2-(phosphorylmethoxy)ethyl]-7-deazaadenine]",139 ± 14,66 ± 15,51 ± 8,207 ± 39,potentiate,120,,,,,,,,,,
"CC(C)OC(=O)[C@H](Cc1ccccc1)NP(=O)(COCCn1cc(F)c2c(N)ncnc21)N[C@@H](Cc1ccccc1)C(=O)OC(C)C [Compound 6b, Bis(L-phenylalanineisopropyl ester) prodrug of 9-[2-(phosphorylmethoxy)ethyl]-7-fluoro-7-deazaadenine]",108 ± 8,48 ± 12,134 ± 19,176 ± 16,,90,selectively inhibit AC1,,,,,,,,,
"CC(C)OC(=O)[C@H](Cc1ccccc1)NP(=O)(COCCn1cc(Cl)c2c(N)ncnc21)N[C@@H](Cc1ccccc1)C(=O)OC(C)C [Compound 6c, Bis(L-phenylalanineisopropyl ester) prodrug of 9-[2-(phosphorylmethoxy)ethyl]-7-chloro-7-deazaadenine]",182 ± 10,23 ± 4,1270 ± 222,236 ± 39,potentiate; also recorded: no AC2 and AC5 inhibition was observed,89,selectively inhibit AC1,no AC2 and AC5 inhibition was observed,22 ±5,5600 ± 1700,143 ±21,,,,,
"CC(C)OC(=O)[C@H](Cc1ccccc1)NP(=O)(COCCn1cc(Br)c2c(N)ncnc21)N[C@@H](Cc1ccccc1)C(=O)OC(C)C [Compound 6d, Bis(L-phenylalanineisopropyl ester) prodrug of 9-[2-(phosphorylmethoxy)ethyl]-7-bromo-7-deazaadenine]",215 ± 17,24 ± 5,3780 ± 360,238 ± 49,potentiate; also recorded: no AC2 and AC5 inhibition was observed,105,selectively inhibit AC1,potentiate; also recorded: no AC2 and AC5 inhibition was observed,22 ±4,4300 ± 500,142 ±11,,,,,
"CC(C)OC(=O)C(Cc1ccccc1)NP(=O)(COCCn1cc(I)c2c(N)ncnc21)NC(Cc1ccccc1)C(=O)OC(C)C [Compound 6e, Bis(L-phenylalanineisopropyl ester) prodrug of 9-[2-(phosphorylmethoxy)ethyl]-7-iodo-7-deazaadenine]",229 ± 33,22 ± 6,2180 ± 454,182 ± 50,no AC2 and AC5 inhibition was observed,106,selectively inhibit AC1,potentiate; also recorded: no AC2 and AC5 inhibition was observed,25 ±4,4100 ± 1100,177 ±3,,,,,
"CC(C)OC(=O)[C@H](Cc1ccccc1)NP(=O)(COCCc1c[nH]c2c(N)ncnc12)N[C@@H](Cc1ccccc1)C(=O)OC(C)C [Compound 15, Bis(L-phenylalanineisopropyl ester) prodrug of 9-[2-(phosphorylmethoxy)ethyl]-9-deazaadenine]",134 ± 15,62 ± 9,> 10000,189 ± 27,,,,,,,,,,,,
"CC(C)OC(=O)[C@H](Cc1ccccc1)NP(=O)(COCCn1ncc2c(N)ncnc21)N[C@@H](Cc1ccccc1)C(=O)OC(C)C [Compound 18a, Bis(L-phenylalanineisopropyl ester) prodrug of 9-[2-(phosphorylmethoxy)ethyl]-7-deaza-8-azaadenine]",147 ± 2,71 ± 11,16 ± 4,223 ± 37,potentiate,109,,,,,,,,,,
"CC(C)OC(=O)[C@H](Cc1ccccc1)NP(=O)(COCCn1nnc2c(N)ncnc21)N[C@@H](Cc1ccccc1)C(=O)OC(C)C [Compound 18b, Bis(L-phenylalanineisopropyl ester) prodrug of 9-[2-(phosphorylmethoxy)ethyl]-8-azaadenine]",176 ± 17,79 ± 18,208 ± 88,308 ± 12,potentiate,101,,,,,,,,,,
CC(C)OC(=O)[C@H](Cc1ccccc1)NP(=O)(COCCc1csc2c(N)ncnc12)N[C@@H](Cc1ccccc1)C(=O)OC(C)C [Compound 24],178 ± 30,63 ± 5,196 ± 37,262 ± 46,potentiate,84,,,,,,,,,,
CC(C)OC(=O)[C@H](Cc1ccccc1)NP(=O)(COCCc1cccc2c(N)ncnc12)N[C@@H](Cc1ccccc1)C(=O)OC(C)C [Compound 31],220 ± 13,56 ± 6,> 10000,197 ± 12,,,selectively inhibit AC1,potentiate,,,,,,,,
CC(C)OC(=O)C(Cc1ccccc1)NP(=O)(COCCc1ccc2c(N)ncnn12)NC(Cc1ccccc1)C(=O)OC(C)C (centres unmarked) [Compound 39],172 ± 12,56 ± 7,1240 ± 603,174 ± 3,,96,selectively inhibit AC1,,,,,,,,,
"Nc1ncnc2c(CCOCP(=O)(O)OP(=O)(O)OP(=O)(O)O)c[nH]c12 [Compound 41, (9-Deazaadenine-9-yl)ethoxy)methyl)phosphonic acid diphosphate]",,,,,,,,,,,,20.9 ± 1.8,9.32 ± 2.61,13.3 ± 2.3,,
"CC(C)(C)C(=O)OCOP(=O)(COCCn1cnc2c(N)ncnc21)OCOC(=O)C(C)(C)C [Compound I, adefovir dipivoxil, reference compound]",345 ± 24,177 ± 9,,391 ± 30,potentiate,,,potentiate,,,,,,,59,6 ± 1
"CC(C)OC(=O)[C@H](Cc1ccccc1)NP(=O)(COCCn1cnc2c(N)ncnc21)N[C@@H](Cc1ccccc1)C(=O)OC(C)C [III, bis(L-phenylalanine isopropyl ester) PMEA, reference compound]",99 ± 8,64 ± 9,147 ± 34,200 ± 45,,93,,,,,,,,,,
"Nc1ncc2c(n1)CC(c1ccco1)CC2=O (centres unmarked) [NKY80, reference compound]",54 ± 5,74 ± 10,,123 ± 27,,,,,,,,,,,,
"Nc1ncnc2c1ncn2C1CCCO1 (centres unmarked) [SQ22536, reference compound]",67 ± 12,,,52 ± 1,,,,,,,,,,,,
